# Results published in ChEMBL document CHEMBL6121000, “Corosolic acid and its derivatives targeting MCCC1 against insulin resistance and their hypoglycemic effect on type 2 diabetic mice” (Eur J Med Chem, 2025).
# Calls of active or inactive are those of the source. No cut-off for these calls is given here.
# Experiments:
# Mus musculus [1] = assay: Hypoglycemic activity in HFD-fed STZ-induced diabetic C57BL/6J mouse model assessed as improvement in total cholesterol level in liver at 10 to 20 mg/kg, po administered everyday for 3 weeks; assay type: functional, organism-based; conditions: dose 10-20 mg/kg
# [2] = Toxicity in Sprague-Dawley rat assessed as damage in colon at 20 mg/kg, po for 5 days; assay type: organism-based; conditions: in vivo, 120 h, time 5 day
# HEK293 = assay: Cytotoxicity against HEK293 cells assessed as cell viability at 40 to 320 uM incubated for 24 hrs by CCK8 assay relative to control; assay type: toxicity, cell-based; conditions: human, hek293, 24 h, dose 40-320 µM
# HepG2 [3] = assay: Inhibition of insulin resistance-associated inflammation in human HepG2 cells assessed as increase in GlcN-reduced I-kaapaB-alpha level at 2.5 to 20 uM preincubated for 1 hr followed by GlcN addition measured after 24 hrs by Western blot analysis; assay type: functional, cell-based; conditions: dose 2.5-20 µM
# HepG2 [4] = assay: Inhibition of insulin resistance in human HepG2 cells assessed as decrease in GlcN-induced glucose production at 20 uM preincubated for 1 hr followed by GlcN treatment for 18 hrs and subsequent insulin stimulation for 20 mins; assay type: functional, cell-based; conditions: time 19.33 hrs
# [5] = Toxicity in Sprague-Dawley rat assessed as damage in heart at 20 mg/kg, po for 5 days; assay type: organism-based; conditions: in vivo, 120 h, time 5 day
# [6] = Toxicity in Sprague-Dawley rat assessed as inflammatory cell infiltration in colon tissue at 20 mg/kg, po for 5 days; assay type: organism-based; conditions: in vivo, 120 h, time 5 day
# Mus musculus [7] = assay: Hypoglycemic activity in HFD-fed STZ-induced diabetic C57BL/6J mouse model assessed as increase in GLUT4 level in liver at 10 to 20 mg/kg, po administered everyday for 3 weeks by Western blot analysis; assay type: functional, organism-based; conditions: dose 10-20 mg/kg
# Mus musculus [8] = assay: Hypoglycemic activity in HFD-fed STZ-induced diabetic C57BL/6J mouse model assessed as improvement in triglyceride level in liver at 10 to 20 mg/kg, po administered everyday for 3 weeks; assay type: functional, organism-based; conditions: dose 10-20 mg/kg
# [9] = Toxicity in Sprague-Dawley rat assessed as damage in lungs at 20 mg/kg, po for 5 days; assay type: organism-based; conditions: in vivo, 120 h, time 5 day
# [10] = target: T1, Methylcrotonoyl-CoA carboxylase subunit alpha, mitochondrial (Homo sapiens) (UniProt Q96RQ3); assay: Binding affinity to MCCC1 in human HepG2 cells assessed as thermal stability at 40 uM incubated for 1 hr followed by heat exposure for 3 mins by CETSA; assay type: cell-based
# T1 sequence (whole entry): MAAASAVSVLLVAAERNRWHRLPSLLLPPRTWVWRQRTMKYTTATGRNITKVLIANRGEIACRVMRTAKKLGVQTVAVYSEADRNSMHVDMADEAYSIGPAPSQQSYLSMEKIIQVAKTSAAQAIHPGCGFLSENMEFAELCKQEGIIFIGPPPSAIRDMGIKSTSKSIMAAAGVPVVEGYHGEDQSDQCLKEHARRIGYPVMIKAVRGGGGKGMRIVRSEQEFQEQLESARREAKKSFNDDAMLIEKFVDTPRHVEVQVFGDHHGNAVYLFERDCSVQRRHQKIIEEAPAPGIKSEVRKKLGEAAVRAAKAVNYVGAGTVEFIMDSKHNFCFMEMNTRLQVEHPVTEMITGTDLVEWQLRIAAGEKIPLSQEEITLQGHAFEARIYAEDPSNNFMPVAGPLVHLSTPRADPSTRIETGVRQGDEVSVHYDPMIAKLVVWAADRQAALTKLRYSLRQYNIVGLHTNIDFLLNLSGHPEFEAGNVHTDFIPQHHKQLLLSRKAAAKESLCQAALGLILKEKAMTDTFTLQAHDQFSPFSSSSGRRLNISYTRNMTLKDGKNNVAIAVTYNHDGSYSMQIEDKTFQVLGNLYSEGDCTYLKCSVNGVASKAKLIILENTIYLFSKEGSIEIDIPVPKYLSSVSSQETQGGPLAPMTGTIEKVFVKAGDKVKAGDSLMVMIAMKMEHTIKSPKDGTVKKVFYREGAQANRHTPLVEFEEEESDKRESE
# HepG2 [11] = assay: Induction of glucose uptake in human HepG2 cells assessed as increase in GlcN-reduced GSK-3beta phosphorylation at 2.5 to 20 uM preincubated for 1 hr followed by GlcN addition measured after 24 hrs by Western blot analysis; assay type: functional, cell-based; conditions: dose 2.5-20 µM, time 25.0 hrs
# Mus musculus [12] = assay: Hypoglycemic activity in HFD-fed STZ-induced diabetic C57BL/6J mouse model assessed as increase in hepatic glycogen synthesis at 10 to 20 mg/kg, po administered everyday for 3 weeks; assay type: functional, organism-based; conditions: dose 10-20 mg/kg
# [13] = Cytotoxicity against human HepG2 cells assessed as cell viability at 80 uM incubated for 24 hrs by CCK8 assay relative to control; assay type: toxicity, cell-based; conditions: HepG2 cells, read-out: Activity
# [14] = Toxicity in Sprague-Dawley rat assessed as damage in liver at 20 mg/kg, po for 5 days; assay type: organism-based; conditions: in vivo, 120 h, time 5 day
# Mus musculus [15] = assay: Hypoglycemic activity in HFD-fed STZ-induced diabetic C57BL/6J mouse model assessed as decrease in blood glucose level at 10 to 20 mg/kg, po administered everyday for 3 weeks; assay type: functional, organism-based; conditions: dose 10-20 mg/kg
# Mus musculus [16] = assay: Hypoglycemic activity in 12 hr-fasted STZ-induced diabetic C57BL/6J mouse model assessed as decrease in blood glucose level at 20 mg/kg, po measured for 30 to 90 mins by insulin tolerance test; assay type: functional, organism-based; conditions: time 30-90 min
# HepG2 [17] = assay: Lipid lowering activity in human HepG2 cells assessed as reduction in FFA-induced triglyceride content at 20 uM preincubated for 1 hr followed by FFA treatment for 24 hrs; assay type: functional, cell-based; conditions: time 25.0 hrs
# HepG2 [18] = assay: Inhibition of insulin resistance in human HepG2 cells assessed as decrease in GlcN-induced glucose production at 40 uM preincubated for 1 hr followed by GlcN treatment for 18 hrs and subsequent insulin stimulation for 20 mins in presence of VPA by glucose oxidase-peroxidase assay; assay type: functional, cell-based; conditions: time 19.33 hrs
# [19] = Toxicity in Sprague-Dawley rat assessed as reduction in number of crypts in colon tissue at 20 mg/kg, po for 5 days; assay type: organism-based; conditions: in vivo, 120 h, time 5 day
# HepG2 [20] = assay: Induction of glucose uptake in human HepG2 cells assessed as increase in GlcN-reduced AKT phosphorylation at 40 uM preincubated for 1 hr followed by GlcN addition measured after 18 hrs in presence of VPA by Western blot analysis; assay type: functional, cell-based; conditions: time 19.0 hrs
# HepG2 [21] = assay: Lipid lowering activity in human HepG2 cells assessed as inhibition of FFA-induced triglyceride content at 20 uM preincubated for 1 hr followed by FFA treatment for 24 hrs relative to control; assay type: functional
# [22] = Toxicity in Sprague-Dawley rat assessed as damage in spleen at 20 mg/kg, po for 5 days; assay type: organism-based; conditions: in vivo, 120 h, time 5 day
# [23] = Solubility of compound in PBS; assay type: physicochemical
# HepG2 [24] = assay: Induction of glucose uptake in human HepG2 cells assessed as increase in GlcN-reduced AKT phosphorylation at 2.5 to 20 uM preincubated for 1 hr followed by GlcN addition measured after 24 hrs by Western blot analysis; assay type: functional, cell-based; conditions: dose 2.5-20 µM, time 25.0 hrs
# Mus musculus [25] = assay: Hypoglycemic activity in HFD-fed STZ-induced diabetic C57BL/6J mouse model assessed as increase in AKT phosphorylation in liver at 10 to 20 mg/kg, po administered everyday for 3 weeks by Western blot analysis; assay type: functional, organism-based; conditions: dose 10-20 mg/kg
# HepG2 [26] = assay: Inhibition of insulin resistance in human HepG2 cells assessed as restoration of GlcN-reduced MCCC1 level at 40 uM preincubated for 1 hr followed by GlcN treatment for 18 hrs in presence of VPA by Western blot analysis; assay type: functional, cell-based; conditions: time 19.0 hrs
# HepG2 [27] = assay: Induction of glucose uptake in human HepG2 cells assessed as increase in GlcN-reduced GLUT4 level at 2.5 to 20 uM preincubated for 1 hr followed by GlcN addition measured after 24 hrs by Western blot analysis; assay type: functional, cell-based; conditions: dose 2.5-20 µM, time 25.0 hrs
# HepG2 [28] = assay: Inhibition of insulin resistance in human HepG2 cells assessed as restoration of GlcN-reduced MCCC1 level at 40 uM preincubated for 1 hr followed by GlcN treatment for 18 hrs by Western blot analysis; assay type: functional, cell-based; conditions: time 19.0 hrs
# Mus musculus [29] = assay: Hypoglycemic activity in HFD-fed STZ-induced diabetic C57BL/6J mouse model assessed as improvement in weight loss at 10 to 20 mg/kg, po administered everyday for 3 weeks; assay type: functional, organism-based; conditions: dose 10-20 mg/kg
# Mus musculus [30] = assay: Hypoglycemic activity in HFD-fed STZ-induced diabetic C57BL/6J mouse model assessed as reduction in glucose production at 10 to 20 mg/kg, po administered everyday for 3 weeks; assay type: functional, organism-based; conditions: dose 10-20 mg/kg
# Mus musculus [31] = assay: Hypoglycemic activity in 12 hr-fasted STZ-induced diabetic C57BL/6J mouse model assessed as decrease in AUC of blood glucose level at 20 mg/kg, po measured upto 120 mins by insulin tolerance test relative to control; assay type: functional; set-up: scale not given: the % may be the effect or the level left; conditions: 2 h
# Mus musculus [32] = assay: Hypoglycemic activity in HFD-fed STZ-induced diabetic C57BL/6J mouse model assessed as reversal of diabetes-reduced MCCC1 level in liver at 10 to 20 mg/kg, po administered everyday for 3 weeks by Western blot analysis; assay type: functional, organism-based; conditions: dose 10-20 mg/kg
# [33] = target: T1, Methylcrotonoyl-CoA carboxylase subunit alpha, mitochondrial (Homo sapiens); assay: Binding affinity to MCCC1 in human HepG2 cells assessed as reduction in pronase-mediated MCCC1 degradation at 40 to 80 uM preincubated for 1 hr followed by pronase addition measured after 10 mins by DARTS assay; assay type: cell-based; conditions: dose 40-80 µM, time 70.0 min
compound,measurement,setting,value
C[C@H]1[C@H](C)CC[C@]2(C(=O)NCC(=O)O)CC[C@]3(C)C(=CC[C@@H]4[C@@]5(C)C[C@@H](O)[C@H](O)C(C)(C)[C@@H]5CC[C@]43C)[C@H]12,Activity,Mus musculus [1],Active
same,Activity,[2],Non-toxic
same,Activity,HEK293,Non-toxic
same,inhibition,HepG2 [3],Active
same,inhibition,HepG2 [4],Active
same,Activity,[5],Non-toxic
same,Activity,[6],Non-toxic
same,Activity,Mus musculus [7],Active
same,Activity,Mus musculus [8],Active
same,Activity,[9],Non-toxic
same,Activity,[10],Active
same,Activity,HepG2 [11],Active
same,Activity,Mus musculus [12],Active
same,"viability at 24 h, 80 µM",[13],> 80%
same,Activity,[14],Non-toxic
same,Activity,Mus musculus [15],Active; Activity Similar To Metformin At 200 Mg/Kg
same,Activity,Mus musculus [16],Active
same,Activity,HepG2 [17],Active
same,inhibition,HepG2 [18],inactive
same,Activity,[19],Non-toxic
same,Activity,HepG2 [20],inactive
same,inhibition at 20 µM,HepG2 [21],59.5%
same,Activity,[22],Non-toxic
same,solubility,[23],3.98 mM
same,Activity,HepG2 [24],Active
same,Activity,Mus musculus [25],Active
same,inhibition,HepG2 [26],inactive
same,Activity,HepG2 [27],Active
same,inhibition,HepG2 [28],Active
same,Activity,Mus musculus [29],Active
same,Activity,Mus musculus [30],Active
same,Activity,Mus musculus [31],19.4%
same,Activity,Mus musculus [32],Active
same,Activity,[33],Active
